Test results taken from ChEMBL document CHEMBL5550154, “Novel biaryloxazolidinone derivatives with broad-spectrum antibacterial activity, favorable drug-like profiles and in vivo efficacy against linezolid-resistant Staphylococcusaureus” (Eur J Med Chem, 2024).
In brackets after ≈: the same amount, converted by molar mass.

Columns and labels:
[1] = Solubility of compound at pH 7.4; format: physicochemical; settings: buffer
[2] = Elimination half life in Sprague-Dawley rat at 1 mg/kg, iv measured upto 24 hrs by LC-MS analysis; format: ADME, organism-based; settings: in vivo, read-out: beta t1/2 (converted)
[3] = Aqueous solubility of compound at pH 2 by LC-MS/MS analysis; format: physicochemical; settings: buffer
[4] = Efflux ratio of apparent permeability across […] side in human Caco-2 cells; format: ADME, cell-based
Enterococcus faecalis = assay: Antibacterial activity against linezolid-resistant Enterococcus faecalis assessed as inhibition of bacterial growth incubated for 16 to 20 hrs by CLSI based broth liquid microdilution method; format: functional; settings: time 16-20 hrs
[5] = Clearance in Sprague-Dawley rat at 1 mg/kg, iv measured upto 24 hrs by LC-MS analysis; format: ADME, organism-based; settings: in vivo
[6] = Tmax in Sprague-Dawley rat at 10 mg/kg, IG measured upto 24 hrs by LC-MS analysis; format: ADME, organism-based; settings: in vivo, po
[7] = Elimination half life in Sprague-Dawley rat at 10 mg/kg, IG measured upto 24 hrs by LC-MS analysis; format: ADME, organism-based; settings: in vivo, po, read-out: beta t1/2 (converted)
Staphylococcus aureus [8] = assay: Antibacterial activity against methicillin-resistant Staphylococcus aureus assessed as inhibition of bacterial growth incubated for 16 to 20 hrs by CLSI based broth liquid microdilution method; format: functional; settings: time 16-20 hrs
[9] = Bioavailability in Sprague-Dawley rat at 10 mg/kg, IG measured upto 24 hrs by LC-MS analysis; format: ADME, organism-based; settings: in vivo, po
[10] = Aqueous solubility of compound at pH 7.4 by LC-MS/MS analysis; format: physicochemical; settings: buffer
Staphylococcus aureus [11] = assay: Antibacterial activity against methicillin-sensitive Staphylococcus aureus assessed as inhibition of bacterial growth incubated for 16 to 20 hrs by CLSI based broth liquid microdilution method; format: functional; settings: time 16-20 hrs
[12] = Apparent volume of distribution in Sprague-Dawley rat at 1 mg/kg, iv measured upto 24 hrs by LC-MS analysis; format: ADME, organism-based; settings: in vivo, read-out: Vz
[13] = AUC (0 to t) in Sprague-Dawley rat at 1 mg/kg, iv measured upto 24 hrs by LC-MS analysis; format: ADME, organism-based; settings: in vivo
[14] = Cmax in Sprague-Dawley rat at 10 mg/kg, IG measured upto 24 hrs by LC-MS analysis; format: ADME, organism-based; settings: in vivo, po
[15] = Solubility of compound at pH 2; format: physicochemical; settings: buffer
Staphylococcus aureus [16] = assay: Antibacterial activity against linezolid-resistant Staphylococcus aureus assessed as inhibition of bacterial growth incubated for 16 to 20 hrs by CLSI based broth liquid microdilution method; format: functional; settings: time 16-20 hrs
Staphylococcus aureus [17] = assay: Antibacterial activity against Staphylococcus aureus ATCC29213 assessed as inhibition of bacterial growth incubated for 16 to 20 hrs by CLSI based broth liquid microdilution method; format: functional; settings: time 16-20 hrs
[18] = Apparent permeability across apical to basolateral side in human Caco-2 cells; format: ADME, cell-based
[19] = AUC (0 to t) in Sprague-Dawley rat at 10 mg/kg, IG measured upto 24 hrs by LC-MS analysis; format: ADME, organism-based; settings: in vivo, po

Row | SMILES | MIC (Enterococcus faecalis) | MIC (Staphylococcus aureus [8]) | MIC (Staphylococcus aureus [11]) | MIC (Staphylococcus aureus [16]) | MIC (Staphylococcus aureus [17]) | also measured
1 | CC(=O)NC[C@H]1CN(c2ccc(-c3ccc(/C=N/N4CCS(=O)(=O)CC4)nc3)c(F)c2)C(=O)O1 | 0.25 µg/mL (≈ 0.511 µM) | 0.125 µg/mL (≈ 0.255 µM) | 0.125 µg/mL (≈ 0.255 µM) | 0.125 µg/mL (≈ 0.255 µM) | 0.125 µg/mL (≈ 0.255 µM) | solubility [1]: 2.38 µM (≈ 1.17 µg/mL); half-life [2]: 44.4 min; solubility [3]: 70.4 µM (≈ 34.5 µg/mL); Ratio [4]: 64; clearance [5]: 12.9 mL/min/kg; Tmax [6]: 30 min; half-life [7]: 154 min; bioavailability [9]: 3.6%; solubility [10]: 38 µM (≈ 18.6 µg/mL); Vd [12]: 0.58 L/kg; AUC(0-t) at 24 h [13]: 1290 ng·h/mL; Cmax [14]: 140 ng/mL; solubility [15]: 70.4 µM (≈ 34.5 µg/mL); Papp A→B [18]: 0.27 ×10⁻⁶ cm/s; AUC(0-t) at 24 h [19]: 469 ng·h/mL
2 | O=C1O[C@@H](CNS(=O)(=O)C2CC2)CN1c1ccc(-c2ccc(/C=N/N3CCCCC3)nc2)c(F)c1 | > 16 µg/mL | 0.25 µg/mL (≈ 0.498 µM) | 0.25 µg/mL (≈ 0.498 µM) | > 16 µg/mL | 0.25 µg/mL (≈ 0.498 µM) | –
3 | CS(=O)(=O)NC[C@H]1CN(c2ccc(-c3ccc(/C=N/N4CCCCC4)nc3)c(F)c2)C(=O)O1 | 4 µg/mL (≈ 8.41 µM) | 0.125 µg/mL (≈ 0.263 µM) | 0.125 µg/mL (≈ 0.263 µM) | > 16 µg/mL | 0.06 µg/mL (≈ 0.126 µM) | –
4 | N=C(N)N/N=C/c1ccc(-c2ccc(N3C[C@H](CO)OC3=O)cc2F)cn1 | 2 µg/mL (≈ 5.37 µM) | 1 µg/mL (≈ 2.69 µM) | 0.5 µg/mL (≈ 1.34 µM) | 1 µg/mL (≈ 2.69 µM) | 1 µg/mL (≈ 2.69 µM) | –
5 | O=C1O[C@@H](CO)CN1c1ccc(-c2ccc(/C=N/Nc3ccc(Cl)cn3)nc2)c(F)c1 | 8 µg/mL (≈ 18.1 µM) | 0.5 µg/mL (≈ 1.13 µM) | 0.5 µg/mL (≈ 1.13 µM) | 0.5 µg/mL (≈ 1.13 µM) | 0.5 µg/mL (≈ 1.13 µM) | –
6 | O=C1O[C@@H](CO)CN1c1ccc(-c2ccc(/C=N/Nc3ccc(Cl)nn3)nc2)c(F)c1 | 2 µg/mL (≈ 4.52 µM) | 0.5 µg/mL (≈ 1.13 µM) | 0.5 µg/mL (≈ 1.13 µM) | 1 µg/mL (≈ 2.26 µM) | 0.5 µg/mL (≈ 1.13 µM) | –
7 | Cc1cc(Br)cc(C(=O)N2CCN(/N=C/c3ccc(-c4ccc(N5C[C@H](CO)OC5=O)cc4F)cn3)CC2)c1 | 4 µg/mL (≈ 6.71 µM) | 0.25 µg/mL (≈ 0.419 µM) | 0.125 µg/mL (≈ 0.21 µM) | 0.25 µg/mL (≈ 0.419 µM) | 0.25 µg/mL (≈ 0.419 µM) | –
8 | O=C1O[C@@H](CO)CN1c1ccc(-c2ccc(/C=N/N3CCSCC3)nc2)c(F)c1 | 8 µg/mL (≈ 19.2 µM) | 1 µg/mL (≈ 2.4 µM) | 1 µg/mL (≈ 2.4 µM) | 2 µg/mL (≈ 4.8 µM) | 2 µg/mL (≈ 4.8 µM) | –
9 | COC[C@H]1CN(c2ccc(-c3ccc(/C=N/N4CCCCC4)nc3)c(F)c2)C(=O)O1 | > 16 µg/mL | – | > 16 µg/mL | – | > 16 µg/mL | –
10 | O=C1O[C@@H](CO)CN1c1ccc(-c2ccc(/C=N/NC3=NCCN3)nc2)c(F)c1 | 2 µg/mL (≈ 5.02 µM) | 0.5 µg/mL (≈ 1.26 µM) | 0.25 µg/mL (≈ 0.628 µM) | 0.5 µg/mL (≈ 1.26 µM) | 0.5 µg/mL (≈ 1.26 µM) | –
11 | CS(=O)(=O)N1CCN(/N=C/c2ccc(-c3ccc(N4C[C@H](CO)OC4=O)cc3F)cn2)CC1 | 1 µg/mL (≈ 2.09 µM) | 0.25 µg/mL (≈ 0.524 µM) | 0.125 µg/mL (≈ 0.262 µM) | 0.125 µg/mL (≈ 0.262 µM) | 0.25 µg/mL (≈ 0.524 µM) | –
12 | CC(C)(C)C(=O)NC[C@H]1CN(c2ccc(-c3ccc(/C=N/N4CCCCC4)nc3)c(F)c2)C(=O)O1 | > 16 µg/mL | 4 µg/mL (≈ 8.31 µM) | 4 µg/mL (≈ 8.31 µM) | > 16 µg/mL | 4 µg/mL (≈ 8.31 µM) | –
